Structures are written as SMILES.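 Test compounds were applied to cells in 96-well plates for 48 hours at 5 doses. Here, GI50 denotes the concentration required for 50% inhibition of growth.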 Activity calls are given as the source filed them. Rule as the data show it: active = GI50 up to about 1.1 µM and inactive = higher.

Some test systems named below: 786-0; A498; A549; COLO 205; HCT-15; HL-60; HOP-92; KM12; NCI-H226; NCI-H460; OVCAR-3; OVCAR-4; OVCAR-5; OVCAR-8; SF-268; SF-539; SK-MEL-5; SNB-19; UO-31.
Test in all cases: NCI anticancer screen, dose series, 48 h

On to `CC(C)C(Sc1nc(-c2ccccc2)c(-c2ccccc2)[nH]1)C(=O)N/N=C/c1ccc(Cl)cc1` (stereo not given), for which the GI50 is 21.6 µM (inactive) in the experiment with 786-0; 22 µM (inactive) in the experiment on A498; 30.8 µM (inactive) in the experiment on A549; 17.7 µM (inactive) in the experiment on COLO 205; 17.5 µM in the experiment on HCT-15; 26.3 µM (inactive) in the experiment on HL-60. In addition, the GI50 in the experiment on HOP-92 was 21 µM (inactive); with KM12, 19.8 µM (inactive); with NCI-H226, 17.2 µM (inactive); with NCI-H460, 22.7 µM (inactive); in the experiment with OVCAR-3 it was 18.2 µM (inactive); with OVCAR-4 it was 27.7 µM (inactive). In addition, the GI50 was 22.6 µM (inactive) in the experiment on OVCAR-5; 19.7 µM (inactive) with OVCAR-8; 20.9 µM (inactive) with SF-268; 21.1 µM (inactive) in the experiment on SF-539; 16.7 µM (inactive) in the experiment with SK-MEL-5; 36.9 µM (inactive) with SNB-19. Further, the GI50 with UO-31 is 19.5 µM (inactive).

For the compound `NC1=C(N2CCCCC2)C(=O)NC2=N/C(=C\c3ccco3)C(=O)N21`, the GI50 in the experiment with 786-0 is > 100 µM (inactive); in the experiment with A498, > 100 µM (inactive); in the experiment with A549, > 100 µM (inactive); in the experiment with COLO 205, > 100 µM (inactive); with HCT-15, greater than 100 µM; in the experiment with HL-60, > 100 µM (inactive). In addition, the GI50 with HOP-92, in the experiment on KM12, in the experiment with NCI-H226, with OVCAR-4, in the experiment with OVCAR-5 and in the experiment with OVCAR-8 was > 100 µM (inactive) throughout. The GI50 in the experiment on SF-268, in the experiment with SF-539, in the experiment with SK-MEL-5, in the experiment on SNB-19 and with UO-31 was > 100 µM (inactive) in each case.

As to `C#CCOCn1cnc2c(N)ncnc21`, the GI50 in the experiment with 786-0, in the experiment with A498, in the experiment with A549, in the experiment on COLO 205, in the experiment on HOP-92 and in the experiment on KM12 was > 100 µM (inactive) throughout. For the same compound, the GI50 with NCI-H226, with NCI-H460, in the experiment with OVCAR-3, in the experiment on OVCAR-4, in the experiment on OVCAR-5 and with OVCAR-8 was > 100 µM (inactive) in each case. Also, the GI50 in the experiment with SF-268, in the experiment with SF-539, in the experiment on SK-MEL-5, with SNB-19 and in the experiment on UO-31 was > 100 µM (inactive) each time.

For the compound `Cc1nc2ccccc2nc1NS(=O)(=O)c1ccc(N)cc1`, the GI50 was > 100 µM (inactive) with 786-0; > 100 µM (inactive) in the experiment with A498; > 100 µM (inactive) in the experiment with A549; > 100 µM (inactive) in the experiment on COLO 205; greater than 100 µM in the experiment with HCT-15; > 100 µM (inactive) with HL-60. For the same compound, the GI50 in the experiment with HOP-92, in the experiment on KM12, with NCI-H226, with OVCAR-3, with OVCAR-4 and with OVCAR-5 was > 100 µM (inactive) in each case. The GI50 with OVCAR-8, in the experiment on SF-268, with SF-539, in the experiment with SK-MEL-5, in the experiment on SNB-19 and in the experiment on UO-31 was > 100 µM (inactive) throughout.

Consider `S=P(N1CCCC1)(N1CC1)N1CC1`, for which the GI50 in the experiment with 786-0 was > 100 µM (inactive); with A498, > 100 µM (inactive); in the experiment with A549, > 100 µM (inactive); with COLO 205, > 100 µM (inactive); with HCT-15 it was greater than 100 µM; in the experiment on HL-60, 56.2 µM (inactive). Besides, the GI50 with HOP-92 was > 10 µM (inactive); in the experiment with KM12, > 100 µM (inactive); with NCI-H226, > 100 µM (inactive); with NCI-H460 it was 32.4 µM (inactive); with OVCAR-3, > 100 µM (inactive); with OVCAR-4 it was > 100 µM (inactive). Moreover, the GI50 was > 100 µM (inactive) in the experiment on OVCAR-5; > 100 µM (inactive) with OVCAR-8; > 100 µM (inactive) with SF-268; > 100 µM (inactive) in the experiment on SF-539; > 100 µM (inactive) in the experiment on SK-MEL-5; 84.1 µM (inactive) in the experiment with SNB-19. Further, in the experiment with UO-31, the GI50 is > 100 µM (inactive).

As to `CCC1(c2c(F)c(F)c(N)c(F)c2F)CCC(=O)NC1=O` (stereo not given), the GI50 in the experiment with 786-0 was > 100 µM (inactive); in the experiment on A498, > 100 µM (inactive); in the experiment on A549, > 100 µM (inactive); in the experiment on COLO 205, > 100 µM (inactive); in the experiment with HCT-15, greater than 100 µM; with HL-60, > 100 µM (inactive). Moreover, the GI50 with HOP-92, in the experiment on KM12, in the experiment on NCI-H226, in the experiment with NCI-H460, with OVCAR-3 and in the experiment on OVCAR-4 was > 100 µM (inactive) throughout. Besides, the GI50 with OVCAR-5, in the experiment with OVCAR-8, in the experiment on SF-268, with SF-539, in the experiment on SK-MEL-5 and in the experiment with SNB-19 was > 100 µM (inactive) each time. Further, in the experiment on UO-31, the GI50 is > 100 µM (inactive).

For the compound `CCOc1cccc(-c2cc(O)c3cc4c(cc3n2)OCO4)c1`, the GI50 in the experiment on 786-0 was 0.197 µM (active); in the experiment with A498, 78.9 µM (inactive); with A549 it was 0.378 µM (active); in the experiment with COLO 205, 0.206 µM (active); in the experiment on HCT-15, 0.189 µM; in the experiment with HL-60, 0.044 µM (active). The GI50 with HOP-92 was 0.264 µM (active); in the experiment on KM12 it was 0.267 µM (active); in the experiment with NCI-H226, 0.438 µM (active); with NCI-H460 it was 0.318 µM (active); in the experiment with OVCAR-3, 0.182 µM (active); in the experiment on OVCAR-4 it was 82 µM (inactive). The GI50 was 0.265 µM (active) in the experiment with OVCAR-8; 0.466 µM (active) in the experiment with SF-268; 0.13 µM (active) in the experiment with SF-539; 0.0505 µM (active) in the experiment with SK-MEL-5; 0.321 µM (active) with SNB-19; 0.339 µM (active) with UO-31.

Consider `O=C(CC(C(=O)c1ccsc1)c1ccccc1)c1ccccc1` (stereo not given), for which the GI50 was > 100 µM (inactive) in the experiment with 786-0; 25.8 µM (inactive) in the experiment on A498; 28 µM (inactive) in the experiment on A549; > 100 µM (inactive) with COLO 205; 83.9 µM in the experiment with HCT-15; 0.484 µM (active) in the experiment on HL-60. For the same compound, the GI50 in the experiment with HOP-92 is > 100 µM (inactive); with KM12, 49.9 µM (inactive); in the experiment on NCI-H226 it was 74.1 µM (inactive); in the experiment on NCI-H460, > 100 µM (inactive); in the experiment on OVCAR-3 it was > 100 µM (inactive); in the experiment with OVCAR-4, 6.5 µM (inactive). Also, the GI50 with OVCAR-5 is > 100 µM (inactive); in the experiment on OVCAR-8 it was > 100 µM (inactive); in the experiment on SF-268, > 100 µM (inactive); in the experiment on SF-539, > 100 µM (inactive); in the experiment on SK-MEL-5, 43.2 µM (inactive); in the experiment on UO-31 it was > 100 µM (inactive).

For the origin of these results see ChEMBL document CHEMBL1201862, “PubChem BioAssay data set” (2004).
